Experimental data reported in patent publication US12115161B2, “Prophylactic and/or therapeutic agent for inflammatory diseases which contains pyrrolopyrimidine compound as active ingredient” (KEIO UNIVERSITY, priority 2018, dated 2024).

Experiments:
[1] = test system: human monocytic cell line THP-1; experiment: IL-6 production inhibitory effect of BAFF in IFNγ-precultured THP-1 cells (Example 2); type: cell-based; settings: for relative amount of IL-6 production: 30 μM, control (BAFF only) = 100%
Experimental: In 24-well plates (manufactured by Corning Inc.) in a RPMI-1640 culture medium (produced by ATCC) containing 10% fetal bovine serum (produced by JRH Biosciences), 5×10^5 cells of human monocytic leukemia cell line THP-1 (obtained from a bioresource bank, Japanese Collection of Research Bioresource) were seeded per well. IFNγ (interferon γ, produced by BD Pharmingen) was added to a final concentration of 200 ng/mL and cultured in a 5% CO2 environment at 37° C. After four days of culture, the culture broth in each well was removed and the cells were washed twice with the culture medium, followed by addition of the culture medium containing a final concentration of 2 μg/mL of recombinant human soluble BAFF (produced by Chemicon), and respective test compounds were added to a final concentration of 20 μM or 2 μM to continue the culture in the same conditions. After three days of culture, the culture supernatant was collected to determine the IL-6 content in the supernatant by ELISA. For ELISA, mouse anti-human IL-6 antibody (produced by BD Pharmingen), biotin-labeled anti-human IL-6 antibody (produced by BD Pharmingen), and HRP-labeled streptavidin (produced by BD Pharmingen) were used. The test compound groups were used by purchasing from Asinex. In the test system, Compound 27 (BIK-13) in PTL 1 was used as a positive control (compound with inhibitory action on IL-6 production by monocytic cells). BIK-13 was the same as the compound of ADM 12880656 by Asinex Japan Inc.
In the presence of 200 ng/mL recombinant human IFNγ (same as Example 1) (entire culture scale of 24-well culture plates at 2 mL/well), 5×10^5 cells of human monocytic cell line THP-1 (same as Example 1) were cultured using a 10% FBS/RPMI 1640 culture medium in a 5% CO2 environment at 37° C. for four days (96 hours). Four days later, an operation of removing the supernatant, adding a new medium, leaving it still in an incubator, and removing the supernatant was repeated twice. After removing the supernatant, recombinant human BAFF (2 μg/mL) was dissolved together with Compound A (ADM 12880492, Asinex Japan Inc.) or Compound B (ADM 12880696, Asinex Japan Inc.) in a medium and added to the culture wells to be cultured for three days. Three days later, the culture supernatant was collected to determine the IL-6 content in the culture supernatant by IL-6 specific ELISA. As a control, instead of Compound A or Compound B, BIK-13 was used.

[2] = test system: human peripheral blood monocytes; experiment: IL-6 production inhibitory effect of BAFF from human peripheral blood monocytes (Example 3); type: cell-based; settings: for IL-6 production inhibitory effect compared with the control: 4 days
Experimental: Monocytes were isolated from normal healthy human peripheral blood using CD14-microbeads. In the presence of 2 μg/mL recombinant human BAFF (same as Example 2) and Compound A (2 μM and 10 μM) (entire culture scale of 24-well culture plates at 2 mL/well), 5×10^5 of the isolated monocytes were cultured using a 10% FBS/RPMI 1640 culture medium in a 5% CO2 environment at 37° C. for four days. Four days later, the supernatant was removed to determine the IL-6 content in the culture supernatant by IL-6 specific ELISA. For comparison, experiments using BIK-13 instead of Compound A were also performed.

[3] = test system: peripheral blood mononuclear cells (PBMC); experiment: IgG production by B cell-stimulation culture using peripheral blood mononuclear cells (Example 5); type: cell-based, human; settings: 7 days (results not shown)
Experimental: Peripheral blood mononuclear cells were isolated from normal healthy human peripheral blood by density gradient centrifugation using Ficoll. In the presence of 5 μg/mL anti-human IgM antibody, 1 μg/mL anti-human CD40 antibody, 30 ng/mL recombinant human IL-21, 30 ng/mL recombinant human BAFF, and Compound A (0.4 μM, 2 μM, and 10 μM), 2×10^5 peripheral blood mononuclear cells were cultured using a 10% FBS/RPMI 1640 culture medium in a 5% CO2 environment at 37° C. for seven days. The cells were cultured in 96-well round-bottom culture plates in a scale of 200 μL per well. Seven days later, the supernatant was removed and the culture supernatant was collected to determine the IgG content in the culture supernatant by ELISA. As controls, experiments in the case of not adding Compound A and the case of adding neither Compound A nor BAFF were also performed. Moreover, for comparison with the effects of Compound A, experiments using BIK-13 instead of Compound A were also performed.

[4] = test system: peripheral blood monocytes and B cells from Sjögren syndrome patients; experiment: IgG production in coculture of BAFF-stimulated peripheral blood monocytes and B cells (Example 4); type: cell-based, human; settings: for IL-6 production inhibitory effect compared with the control: 4 days
Experimental: Monocytes were isolated from Sjögren syndrome patient peripheral blood using CD14 microbeads, and B cells were isolated from the peripheral blood using CD19 microbeads. Using Transwell® culture plates, 2×10^5 monocytes per well were seeded in the upper plate and 1×10^5 B cells in the lower plate to be cultured in the presence of 2 μg/mL recombinant human BAFF (same as Example 2) and Compound A (1 μM and 10 μM) using a 10% FBS/RPMI 1640 culture medium in a 5% CO2 environment at 37° C. for four days (coculture of the peripheral blood monocytes and the B cells via a membrane). Four days later, the supernatant was removed and the culture supernatant was collected to determine the IgG content in the culture supernatant by ELISA. As controls, experiments in the case of not adding Compound A and the case of adding neither Compound A nor BAFF were also performed. Moreover, for comparison with the effects of Compound A, experiments using BIK-13 instead of Compound A were also performed.

| SMILES | IL-6 production inhibitory effect compared with adding no compound ([1]; 1.2 μM with 2 μg/mL human BAFF, 3 days) | IL-6 production inhibitory effect compared with adding no compound ([1]; 6 μM and 30 μM with 2 μg/mL human BAFF, 3 days) | relative amount of IL-6 production [1] | IL-6 production inhibitory effect compared with the control ([2]; 2 μM with 2 μg/mL human BAFF) | IL-6 production inhibitory effect compared with the control ([2]; 10 μM with 2 μg/mL human BAFF) | relative amount of IL-6 production ([2]; 10 μM, control = 100%) [%] | IL-6 production inhibitory effect compared with the control ([3]; 0.4 μM and 2 μM) | IL-6 production inhibitory effect compared with the control ([3]; 10 μM) | IL-6 production inhibitory effect compared with the control ([4]; 1 μM with 2 μg/mL human BAFF) | IL-6 production inhibitory effect compared with the control ([4]; 10 μM with 2 μg/mL human BAFF) | cancellation of the IgG antibody production enhancement by BAFF ([4]; 10 μM, compared with adding neither compound nor BAFF) | IL-6 production inhibitory effect compared with the control ([1]; 0.04 μM, 0.2 μM and 1 μM together with 2 μg/mL human BAFF, 3 days, ELISA) | IL-6 production inhibitory effect compared with BIK-13 ([1]; THP-1 system of Example 2) |
| --- | --- | --- | --- | --- | --- | --- | --- | --- | --- | --- | --- | --- | --- |
| Cc1c(C)n(C2CCCC2)c2ncnc(OC3CCN(C(=O)CN4CCCC4=O)CC3)c12 [BIK-13, reference compound] | no significant difference | significant (p<0.001) IL-6 production inhibitory effects | 52.8±2.2% | no significant difference | significant (p<0.05) IL-6 production inhibitory effect | 80.2±14.5 | no significant difference | significant (p<0.01) IL-6 production inhibitory effect | no significant difference | significant (p<0.01) IL-6 production inhibitory effect | not completely cancelled | – | – |
| Cc1c(C)n(C2CCCC2)c2ncnc(OC3CCN(CCC#N)CC3)c12 [Compound B, 3-[4-{(7-cyclopentyl-5,6-dimethyl-7H-pyrrolo[2,3-d]pyrimidin-4-yl)oxy}piperidin-1-yl]propanenitrile] | – | – | below 50% | – | – | – | – | – | – | – | – | significant (p<0.001) IL-6 production inhibitory effects | stronger IL-6 production inhibitory effect than BIK-13 |
